Test results from patent US5863901A, “Use of bradykinin antagonists for the production of pharmaceuticals for the treatment of chronic fibrogenetic liver disorders and acute liver disorders” (Hoechst Aktiengesellschaft, priority 1996, dated 1999).

System: rats with carbon tetrachloride-induced hepatic fibrosis
Test: Saluresis and diuresis test: urine and electrolyte excretion in rats with carbon tetrachloride-induced hepatic fibrosis
Assay type: in vivo, Wistar rats
Details: for Chloride excretion / Potassium excretion / Sodium excretion / Urine volume: 0.3 mg/kg s.c. at 0 and 6 h, mean value, n = 10, CCl4 fibrosis rats
Method: Wistar rats were used (breeder Hoechst AG, Kastengrund) with an initial body weight of 120-150 g.
Hepatic fibrosis was induced as described by Bickel et al., J. Hepatol., 13 (Suppl. 3) (1991) 26-33. The animals received carbon tetrachloride (CCl4) twice-weekly in a dose of 1 ml/kg orally for at least 6 weeks. The fibrosis of the liver was verified by means of the collagen content of the liver and liver-relevant serum parameters (bilirubin, ALAT, bile acids).
In the course of the fibrogenesis, the animals were kept under standard conditions as follows: day/night rhythm (light phase from 6.30 to 18.30), room temperature 22±2° C. and relative atmospheric humidity 60±10%. The animals received standardized rat feed (Altromin® 1321) and water ad libitum.
At the time of the diuresis test, the animals had reached weights of between 200 and 320 g. Food had already been withdrawn from the animals 16 h before the test and withheld during the entire test. The animals were additionally permitted free access to water up to the actual start of the test. For the duration of the diuresis test, the animals were kept in special diuresis cages. Controlled diuresis was induced with an oral dose of 20 ml of water per kg of body weight at time 0 h. The excretion of electrolytes and urine volumes were determined separately for each animal in the collection periods from […] and 6-24 h. Five days later, the test was carried out again on the same animals with administration of bradykinin antagonists. Animals received 0.3 mg/kg each of HOE 140 s.c. at time 0 and 6 h, dissolved in 5 ml of saline solution per kg of body weight.
Sodium and potassium were determined by flame photometry (Eppendorf flame photometer, Hamburg). Chloride was measured argentometrically by means of potentiometric end-point determination (Eppendorf chloride meter, Hamburg). The analytical results were used to calculate the urine excretion (ml/kg of body weight) and electrolyte excretion (mmol/kg of body weight).
The results are indicated as arithmetic means and standard deviation (SD). Statistical checking was carried out by the T test or, in the case of deviation from the normal distribution, by the nonparametric Mann-Whitney test.

How did the Chloride excretion (collection period 1-5 h) turn out when `NC(N)=NCCC[C@@H](N)C(=O)N[C@@H](CCCN=C(N)N)C(=O)N1CCC[C@H]1C(=O)N1C[C@H](O)C[C@H]1C(=O)NCC(=O)N[C@@H](Cc1cccs1)C(=O)N[C@@H](CO)C(=O)N1Cc2ccccc2C[C@@H]1C(=O)N1[C@H](C(=O)N[C@@H](CCCN=C(N)N)C(=O)O)C[C@@H]2CCCC[C@@H]21` [HOE 140, H-D-Arg-Arg-Pro-Hyp-Gly-Thi-Ser-D-Tic-Oic-Arg-OH] was run?
The Chloride excretion was 0.35 mmol/kg.

And the Potassium excretion (collection period 1-5 h)?
The Potassium excretion was 0.51 mmol/kg.

And the Sodium excretion (collection period 1-5 h)?
The Sodium excretion was 0.48 mmol/kg.

And the Urine volume (collection period 1-5 h)?
The Urine volume was 26.59 mL/kg.

What about the Chloride excretion (collection period 6-24 h) of the same compound?
Its Chloride excretion is 3.27 mmol/kg.

What about the Potassium excretion (collection period 6-24 h) of the same compound?
The Potassium excretion was 2.10 mmol/kg.

And the Sodium excretion (collection period 6-24 h)?
Its Sodium excretion is 4.10 mmol/kg.

What about the Urine volume (collection period 6-24 h) of the same compound?
Its Urine volume is 31.03 mL/kg.

What about the “Natriuresis / sodium excretion (result in words)” value (rats with carbon tetrachloride-induced hepatic fibrosis, versus control run in the same animals) of the same compound?
The value was “marked, statistically significant natriuresis”.
